Source: patent US11369613B2, “Salts and solid form of a BTK inhibitor” (PRINCIPIA BIOPHARMA INC., priority 2014, dated 2022)

Assays:
BTK = target: T1, BTK (Canis lupus familiaris, UniProt A0A8I3P3Z9); assay: BTK occupancy in blood in the dog pemphigus foliaceus study; assay type: in vivo; settings: oral 500 mg daily, blood taken 24 hours after the first dose, read-out: level of BTK occupancy
T1 construct: from tissue; host or cells: blood of the treated dog

pemphigus foliaceus = assay: Dog pemphigus foliaceus study; assay type: in vivo
[1] = Stability of the free base on drying (thermal stability); assay type: physicochemical; settings: drying under vacuum, at less than 45° C.
From the text: Isolation of compound (I) as described in PCT Application No. PCT/US2013058614 is less than ideal for large scale synthesis and isolation and therefore handling and formulating of the resulting compound can present challenges. In addition, when isolated as described in PCT Application No. PCT/US2013058614, the isolated compound (I) retains a higher percentage of residual solvent after drying under vacuum at ambient temperature than that allowed under the International Conference on Harmonisation of Technical Requirements for Registration of Pharmaceuticals for Human Use (“ICH”) guidelines (e.g., -ICH limit for class 2 solvents ranges between 50-3880 ppm and for class 3 solvents <5000 ppm).
However, the solids obtained by this method contained high residual solvents (3.9 wt % isopropylacetate and 1.7 wt % heptane).

chronic SLE = settings: cited from earlier work
[2] = tested on: ANCA-associated vasculitis; settings: cited from earlier work
pemphigus vulgaris = settings: cited from earlier work

T1 sequence (A0A8I3P3Z9 1-664): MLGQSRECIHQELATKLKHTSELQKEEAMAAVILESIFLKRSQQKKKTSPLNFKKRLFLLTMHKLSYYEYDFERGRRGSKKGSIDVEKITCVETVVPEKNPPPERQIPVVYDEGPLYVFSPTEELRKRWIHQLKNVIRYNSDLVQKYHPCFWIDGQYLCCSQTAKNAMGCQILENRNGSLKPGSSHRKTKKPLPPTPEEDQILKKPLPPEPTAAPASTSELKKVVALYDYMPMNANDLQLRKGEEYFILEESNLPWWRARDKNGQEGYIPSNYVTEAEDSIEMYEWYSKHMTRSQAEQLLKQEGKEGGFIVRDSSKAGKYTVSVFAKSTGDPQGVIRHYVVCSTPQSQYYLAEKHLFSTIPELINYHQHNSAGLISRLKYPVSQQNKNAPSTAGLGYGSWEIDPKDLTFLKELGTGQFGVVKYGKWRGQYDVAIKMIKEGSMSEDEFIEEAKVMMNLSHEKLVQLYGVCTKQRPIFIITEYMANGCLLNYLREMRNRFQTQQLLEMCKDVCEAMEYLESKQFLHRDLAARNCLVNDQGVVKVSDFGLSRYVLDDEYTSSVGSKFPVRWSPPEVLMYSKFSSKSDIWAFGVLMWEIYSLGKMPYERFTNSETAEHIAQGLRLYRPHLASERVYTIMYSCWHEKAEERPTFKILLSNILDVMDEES

Molecule: CC(C)(C)/C=C(\C#N)C(=O)N1CCC[C@@H](n2nc(-c3ccc(Oc4ccccc4)cc3F)c3c(N)ncnc32)C1 [(R,E)-2-(3-(4-amino-3-(2-fluoro-4-phenoxy-phenyl)-1H-pyrazolo[3,4-d]-pyrimidin-1-yl)piperidine-1-carbonyl)-4,4-dimethylpent-2-enenitrile]
- receptor occupancy at 500 mg (BTK): ~70%
- Time to clinical response (improved eating and ambulation) (pemphigus foliaceus; 30 kg Doberman, oral 500 mg daily, monotherapy): within three days
- Manifestation of pre-clinical response compared with systemic corticosteroid therapy (pemphigus foliaceus; dog with pemphigus foliaceus, single agent): as rapid and comparable to that observed with systemic corticosteroid therapy
- Corticosteroid-like adverse effects (polyuria, polydipsia, polyphagia, weight gain) (pemphigus foliaceus; dog, oral 500 mg daily): No well-known corticosteroid-like adverse effects
- Skin lesions by four weeks (pemphigus foliaceus; dog, oral 500 mg daily, four weeks): completely healed
- Clinical status at one week follow up visit (pemphigus foliaceus; dog, oral 500 mg daily, one week): improved general health and commencement of pemphigus lesion healing
- Clinical status after two weeks of treatment (pemphigus foliaceus; dog, oral 500 mg daily, two weeks): general health of the dog was excellent and skin lesions continued to improve
- Corticosteroid-like adverse effects (polyuria, polydipsia, polyphagia, weight gain) (pemphigus foliaceus; dog, oral 500 mg daily, listed as (R,E)-2-(3-(4-amino-3-(2-fluoro-4-phenoxyphenyl)-1H-pyrazolo [3,4-d]-pyrimidin-1))): none of the well-known corticosteroid-like adverse effects

Molecule: CC(C)(C=C(C#N)C(=O)N1CCC[C@@H](n2nc(-c3ccc(Oc4ccccc4)cc3F)c3c(N)ncnc32)C1)N1CCN(C2COC2)CC1 [Compound (I), 2-[(3R)-3-[4-amino-3-(2-fluoro-4-phenoxy-phenyl)pyrazolo[3,4-d]pyrimidin-1-yl]piperidine-1-carbonyl]-4-methyl-4-[4-(oxetan-3-yl)piperazin-1-yl]pent-2-enenitrile]
- Stability of free base (degradation products during drying) [1]: thermal instability
- Stability of free base (degradation products during drying) ([1]; listed as free base form): not very stable

Molecule: Belimumab: an anti-Blys antibody
- Effect on improvement of chronic SLE (chronic SLE): modest and delayed effect on improvement
- Patients able to reduce corticosteroid use to <7.5 mg of prednisone (chronic SLE; week 40-52): ≤ 21% of patients (Benlysta US Product

Molecule: Rituximab: anti-CD20 agent
- Onset of effect [2]: Rituximab has delayed effect in ANCA-
- Onset of effect (pemphigus vulgaris): Rituximab has delayed effect in pemphigus
- Time of maximal effect (pemphigus vulgaris): vulgaris with maximal effect at 8-12 weeks
